Results as given in PubChem BioAssay (NCI).
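These data come from cells grown in 96-well plates and exposed to compound for 48 hours at five concentrations. The concentration for 50% growth inhibition is given as GI50. TGI is the concentration that stops growth completely.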

How the values were obtained:
Assay in all cases: NCI tumour cell line growth inhibition, 48 h
[1] = system: SF-539 CNS
[2] = system: MDA-MB-435
[3] = system: HCT-116 colon
[4] = system: EKVX NSCLC
[5] = system: K-562 leukemia
[6] = system: KM12 colon
[7] = system: SR leukemia
[8] = system: SK-OV-3 ovarian
[9] = system: MOLT-4 leukemia
[10] = system: RPMI-8226 leukemia
[11] = system: COLO 205 colon
[12] = system: M14 melanoma
[13] = system: SF-268 CNS
[14] = system: NCI-H226 lung
[15] = system: MALME-3M melanoma
[16] = system: MCF7 breast
[17] = system: U251 CNS
[18] = system: UACC-257 melanoma
[19] = system: T-47D breast
[20] = system: NCI-H460 lung
[21] = system: IGROV1 ovarian
[22] = system: A498 renal
[23] = system: SNB-19 CNS
[24] = system: HL-60(TB) leukemia
[25] = system: HCT-15 colon
[26] = system: NCI-H522 lung
[27] = system: HS 578T breast
[28] = system: PC-3 prostate
[29] = system: DU-145 prostate
[30] = system: UACC-62 melanoma
[31] = system: ACHN renal
[32] = system: A549 NSCLC
[33] = system: NCI-H23 lung
[34] = system: SK-MEL-2 melanoma
[35] = system: HOP-62 NSCLC
[36] = system: HOP-92 NSCLC
[37] = system: NCI/ADR-RES ovarian
[38] = system: SNB-75 CNS
[39] = system: OVCAR-8 ovarian
[40] = system: SF-295 CNS
[41] = system: TK-10 renal
[42] = system: OVCAR-4 ovarian
[43] = system: RXF 393 renal
[44] = system: 786-0 renal
[45] = system: SK-MEL-5 melanoma
[46] = system: BT-549 breast
[47] = system: UO-31 renal
[48] = system: MDA-MB-231 breast
[49] = system: CAKI-1 renal
[50] = system: HT29 colon
[51] = system: OVCAR-5 ovarian
[52] = system: HCC-2998 colon
[53] = system: SK-MEL-28 melanoma
[54] = system: CCRF-CEM leukemia
[55] = system: SW-620 colon
[56] = system: SN12C renal

Q: For `O=C1CC2(CCOCC2)Oc2ncccc21`, which GI50 [1] is on record?
A: The GI50 was 1.74 µM.

Q: And the TGI [1]?
A: Its TGI is 3.22 µM.

Q: What about the GI50 [2] of the same molecule?
A: Its GI50 is 2 µM.

Q: And the TGI [2]?
A: The TGI was 4.3 µM.

Q: What about the GI50 [3] of the same molecule?
A: The GI50 was 1.87 µM.

Q: What about the TGI [3] of the same molecule?
A: The TGI was 3.59 µM.

Q: And the GI50 [4]?
A: Its GI50 is 1.84 µM.

Q: What about the TGI [4] of the same molecule?
A: Its TGI is 3.87 µM.

Q: What about the GI50 [5] of the same molecule?
A: The GI50 was 1.99 µM.

Q: And the TGI [5]?
A: The TGI was greater than 100 µM.

Q: And the GI50 [6]?
A: The GI50 was 2.76 µM.

Q: And the TGI [6]?
A: Its TGI is 7.65 µM.

Q: What about the GI50 [7] of the same molecule?
A: Its GI50 is 0.974 µM.

Q: And the TGI [7]?
A: The TGI was 4.69 µM.

Q: And the GI50 [8]?
A: The GI50 was 15.7 µM.

Q: And the TGI [8]?
A: Its TGI is 29.3 µM.

Q: What about the GI50 [9] of the same molecule?
A: Its GI50 is 2.11 µM.

Q: And the TGI [9]?
A: Its TGI is 4.8 µM.

Q: And the GI50 [10]?
A: The GI50 was 0.545 µM.

Q: What about the TGI [10] of the same molecule?
A: Its TGI is 4.7 µM.

Q: And the GI50 [11]?
A: The GI50 was 1.91 µM.

Q: And the TGI [11]?
A: Its TGI is 4 µM.

Q: What about the GI50 [12] of the same molecule?
A: The GI50 was 1.85 µM.

Q: What about the TGI [12] of the same molecule?
A: The TGI was 3.76 µM.

Q: And the GI50 [13]?
A: The GI50 was 2.55 µM.

Q: What about the TGI [13] of the same molecule?
A: Its TGI is 7.7 µM.

Q: And the GI50 [14]?
A: The GI50 was 2.06 µM.

Q: And the TGI [14]?
A: The TGI was 4.59 µM.

Q: What about the GI50 [15] of the same molecule?
A: The GI50 was 1.79 µM.

Q: What about the TGI [15] of the same molecule?
A: The TGI was 3.51 µM.

Q: What about the GI50 [16] of the same molecule?
A: The GI50 was 2.8 µM.

Q: What about the TGI [16] of the same molecule?
A: Its TGI is 12.8 µM.

Q: What about the GI50 [17] of the same molecule?
A: The GI50 was 1.83 µM.

Q: What about the TGI [17] of the same molecule?
A: Its TGI is 3.63 µM.

Q: And the GI50 [18]?
A: Its GI50 is 2.53 µM.

Q: And the TGI [18]?
A: Its TGI is 7.53 µM.

Q: What about the GI50 [19] of the same molecule?
A: The GI50 was 4.66 µM.

Q: What about the TGI [19] of the same molecule?
A: Its TGI is 26.9 µM.

Q: And the GI50 [20]?
A: Its GI50 is 2.3 µM.

Q: What about the TGI [20] of the same molecule?
A: The TGI was 5.61 µM.

Q: And the GI50 [21]?
A: The GI50 was 1.88 µM.

Q: And the TGI [21]?
A: Its TGI is 3.86 µM.

Q: And the GI50 [22]?
A: The GI50 was 2.38 µM.

Q: What about the TGI [22] of the same molecule?
A: Its TGI is 9.57 µM.

Q: What about the GI50 [23] of the same molecule?
A: Its GI50 is 2.05 µM.

Q: What about the TGI [23] of the same molecule?
A: Its TGI is 4.83 µM.

Q: What about the GI50 [24] of the same molecule?
A: Its GI50 is 2.23 µM.

Q: What about the TGI [24] of the same molecule?
A: The TGI was 5.2 µM.

Q: What about the GI50 [25] of the same molecule?
A: Its GI50 is 1.7 µM.

Q: And the TGI [25]?
A: Its TGI is 3.34 µM.

Q: What about the GI50 [26] of the same molecule?
A: The GI50 was 2 µM.

Q: What about the TGI [26] of the same molecule?
A: The TGI was 4.15 µM.

Q: And the GI50 [27]?
A: The GI50 was 2.54 µM.

Q: What about the TGI [27] of the same molecule?
A: The TGI was 8.26 µM.

Q: What about the GI50 [28] of the same molecule?
A: The GI50 was 2.42 µM.

Q: And the TGI [28]?
A: Its TGI is 6.03 µM.

Q: What about the GI50 [29] of the same molecule?
A: The GI50 was 2.98 µM.

Q: And the TGI [29]?
A: The TGI was 8.42 µM.

Q: What about the GI50 [30] of the same molecule?
A: The GI50 was 1.7 µM.

Q: What about the TGI [30] of the same molecule?
A: Its TGI is 3.22 µM.

Q: What about the GI50 [31] of the same molecule?
A: The GI50 was 1.81 µM.

Q: What about the TGI [31] of the same molecule?
A: Its TGI is 3.21 µM.

Q: And the GI50 [32]?
A: Its GI50 is 4.94 µM.

Q: And the TGI [32]?
A: The TGI was 19.1 µM.

Q: And the GI50 [33]?
A: Its GI50 is 1.89 µM.

Q: What about the TGI [33] of the same molecule?
A: Its TGI is 3.86 µM.

Q: And the GI50 [34]?
A: The GI50 was 2.73 µM.

Q: What about the TGI [34] of the same molecule?
A: The TGI was 7.32 µM.

Q: And the GI50 [35]?
A: Its GI50 is 3.24 µM.

Q: What about the TGI [35] of the same molecule?
A: Its TGI is 13.1 µM.

Q: What about the GI50 [36] of the same molecule?
A: The GI50 was 1.67 µM.

Q: What about the TGI [36] of the same molecule?
A: The TGI was 3.3 µM.

Q: And the GI50 [37]?
A: Its GI50 is 2.05 µM.

Q: What about the TGI [37] of the same molecule?
A: Its TGI is 4.99 µM.

Q: What about the GI50 [38] of the same molecule?
A: Its GI50 is 2.07 µM.

Q: And the TGI [38]?
A: The TGI was 12.4 µM.

Q: What about the GI50 [39] of the same molecule?
A: The GI50 was 2.19 µM.

Q: What about the TGI [39] of the same molecule?
A: Its TGI is 4.92 µM.

Q: What about the GI50 [40] of the same molecule?
A: The GI50 was 12.5 µM.

Q: And the TGI [40]?
A: The TGI was 25.4 µM.

Q: What about the GI50 [41] of the same molecule?
A: The GI50 was 6.68 µM.

Q: What about the TGI [41] of the same molecule?
A: Its TGI is 37.1 µM.

Q: And the GI50 [42]?
A: Its GI50 is 2.1 µM.

Q: And the TGI [42]?
A: The TGI was 4.82 µM.

Q: And the GI50 [43]?
A: Its GI50 is 1.77 µM.

Q: What about the TGI [43] of the same molecule?
A: The TGI was 3.41 µM.

Q: What about the GI50 [44] of the same molecule?
A: Its GI50 is 2.38 µM.

Q: And the TGI [44]?
A: The TGI was 6.33 µM.

Q: What about the GI50 [45] of the same molecule?
A: Its GI50 is 2.09 µM.

Q: What about the TGI [45] of the same molecule?
A: Its TGI is 4.34 µM.

Q: And the GI50 [46]?
A: Its GI50 is 1.84 µM.

Q: What about the TGI [46] of the same molecule?
A: Its TGI is 3.36 µM.

Q: What about the GI50 [47] of the same molecule?
A: The GI50 was 2.63 µM.

Q: And the TGI [47]?
A: Its TGI is 12.8 µM.

Q: And the GI50 [48]?
A: The GI50 was 1.7 µM.

Q: What about the TGI [48] of the same molecule?
A: Its TGI is 3.15 µM.

Q: What about the GI50 [49] of the same molecule?
A: Its GI50 is 1.6 µM.

Q: What about the TGI [49] of the same molecule?
A: Its TGI is 3.04 µM.

Q: And the GI50 [50]?
A: The GI50 was 2.19 µM.

Q: What about the TGI [50] of the same molecule?
A: Its TGI is 4.85 µM.

Q: And the GI50 [51]?
A: The GI50 was 1.7 µM.

Q: What about the TGI [51] of the same molecule?
A: Its TGI is 3.18 µM.

Q: And the GI50 [52]?
A: The GI50 was 1.78 µM.

Q: And the TGI [52]?
A: Its TGI is 3.4 µM.

Q: What about the GI50 [53] of the same molecule?
A: The GI50 was 1.81 µM.

Q: What about the TGI [53] of the same molecule?
A: Its TGI is 3.36 µM.

Q: And the GI50 [54]?
A: Its GI50 is 2.11 µM.

Q: What about the TGI [54] of the same molecule?
A: Its TGI is 4.74 µM.

Q: What about the GI50 [55] of the same molecule?
A: The GI50 was 1.77 µM.

Q: What about the TGI [55] of the same molecule?
A: Its TGI is 3.5 µM.

Q: What about the GI50 [56] of the same molecule?
A: Its GI50 is 1.84 µM.

Q: And the TGI [56]?
A: Its TGI is 3.44 µM.
